# In DBAASP:
# How the values were obtained:
# Test in all cases: ≥ marks a high value that may be exact or a test limit, other limits are often not marked, values filed in µg/mL are converted to µM
# [1] = system: Shigella dysenteriae ATCC 9752
# [2] = system: Staphylococcus aureus ATCC 6538P
# [3] = system: Bacillus subtilis ATCC 6633
# [4] = system: Staphylococcus epidermidis ATCC 12228
# [5] = system: Escherichia coli ATCC 25922
# [6] = system: Klebsiella pneumoniae ATCC 10031
# [7] = system: Salmonella enterica subsp. enterica serovar Typhimurium ATCC 14028
# [8] = system: Micrococcus luteus ATCC 10240
# [9] = system: Pseudomonas aeruginosa ATCC 27853
# [10] = system: Pseudomonas aeruginosa ATCC 15442
# [11] = system: Staphylococcus aureus ATCC 29213
# [12] = system: Candida albicans ATCC 10231
# [13] = system: Bacillus subtilis CMCC 63501
# Escherichia coli UB1005 = system: Escherichia coli UB1005
# [14] = system: Salmonella typhimurium ATCC 7731
# Bacillus subtilis = system: Bacillus subtilis
# [15] = system: Pseudomonas aeruginosa PAO1
# [16] = system: Staphylococcus aureus ATCC 25923
# Escherichia coli ML-35p = system: Escherichia coli ML-35p
# [17] = system: Staphylococcus aureus ATCC 43300
# [18] = system: Candida albicans ATCC 2002
# [19] = system: Escherichia coli NCTC 10418
# [20] = system: Candida albicans NCYC 1467
# [21] = system: Staphylococcus aureus NCTC 10788
# Escherichia coli = system: Escherichia coli
# Streptococcus uberis = system: Streptococcus uberis
# [22] = system: Staphylococcus epidermidis
# Leuconostoc lactis = system: Leuconostoc lactis
# Pasteurella multocida = system: Pasteurella multocida
# Micrococcus luteus = system: Micrococcus luteus
# Listeria innocua = system: Listeria innocua
# Staphylococcus aureus = system: Staphylococcus aureus
# Bacillus cereus = system: Bacillus cereus
# Candida albicans = system: Candida albicans
# Saccharomyces cerevisiae = system: Saccharomyces cerevisiae
# Serratia marcescens = system: Serratia marcescens
# Salmonella typhimurium = system: Salmonella typhimurium
# Pseudomonas aeruginosa = system: Pseudomonas aeruginosa
# Proteus mirabilis = system: Proteus mirabilis
# Shigella dysenteriae = system: Shigella dysenteriae
compound,measurement,setting,value
CC(C)C[C@H](NC(=O)[C@H](Cc1c[nH]c2ccccc12)NC(=O)[C@H](CCCCN)NC(=O)[C@H](Cc1ccccc1)NC(=O)[C@H](C)NC(=O)[C@H](Cc1c[nH]c2ccccc12)NC(=O)[C@H](CCCCN)NC(=O)[C@H](C)NC(=O)[C@@H](N)Cc1ccccc1)C(=O)N[C@@H](CCCCN)C(=O)N[C@@H](CCCCN)C(N)=O [FAKWAFKWLKK],MIC,[1],8.6 µM
same,MIC,[2],4.34 µM
same,MIC,[3],4.34 µM
same,MIC,[4],4.34 µM
same,MIC,[5],8.6 µM
same,MIC,[6],4.34 µM
same,MIC,[7],17.2 µM
same,MIC,[8],4.34 µM
same,MIC,[9],8.6 µM
CC[C@H](C)[C@H](NC(=O)[C@H](C)NC(=O)[C@@H](N)C(C)C)C(=O)N[C@@H](C)C(=O)N[C@@H](CC(C)C)C(=O)N[C@@H](CCCCN)C(=O)N[C@@H](C)C(=O)N[C@@H](C)C(=O)N[C@@H](Cc1cnc[nH]1)C(=O)N[C@@H](Cc1ccc(O)cc1)C(=O)N[C@@H](Cc1cnc[nH]1)C(=O)N[C@H](C(=O)N[C@@H](C)C(=O)N[C@@H](CCCCN)C(=O)N[C@@H](CCC(=O)O)C(=O)O)[C@@H](C)O [VAIALKAAHYHTAKE],MIC,[10],≥ 78.9 µM
same,MIC,[11],0.154 µM
same,MIC,[12],78.9 µM
CC[C@H](C)[C@H](NC(=O)CNC(=O)[C@H](C)NC(=O)[C@H](C)NC(=O)[C@@H](NC(=O)[C@@H](NC(=O)[C@H](CC(N)=O)NC(=O)[C@@H](NC(=O)[C@H](C)NC(=O)[C@@H](NC(=O)[C@@H]1CCCN1C(=O)[C@@H](NC(=O)[C@H](CC(C)C)NC(=O)[C@@H]1CCCN1C(=O)[C@H](Cc1c[nH]c2ccccc12)NC(=O)[C@H](Cc1ccccc1)NC(=O)[C@H](CCCN=C(N)N)NC(=O)[C@@H](N)CCCCN)C(C)C)C(C)C)[C@@H](C)CC)[C@@H](C)O)C(C)C)C(=O)N[C@@H](CC(N)=O)C(N)=O [KRFWPLVPVAINTVAAGIN],MIC,[13],≥ 128 µM
same,MIC,[4],> 128 µM
same,MIC,[5],> 128 µM
same,MIC,Escherichia coli UB1005,≥ 128 µM
same,MIC,[7],> 128 µM
same,MIC,[14],≥ 128 µM
same,MIC,[11],> 128 µM
same,MIC,[9],> 128 µM
CC[C@H](C)[C@H](NC(=O)CNC(=O)[C@H](Cc1c[nH]c2ccccc12)NC(=O)[C@H](CS)NC(=O)[C@H](CO)NC(=O)[C@@H](NC(=O)[C@H](CCC(N)=O)NC(=O)[C@H](Cc1ccccc1)NC(=O)[C@@H]1CCCN1C(=O)[C@@H]1CCCN1C(=O)[C@H](CCCN=C(N)N)NC(=O)[C@H](CCCCN)NC(=O)[C@H](Cc1c[nH]c2ccccc12)NC(=O)[C@@H](NC(=O)[C@H](CCCCN)NC(=O)[C@@H](N)Cc1ccccc1)[C@@H](C)O)[C@@H](C)O)C(=O)N[C@H](C(=O)N[C@@H](CCCCN)C(=O)N[C@@H](CCC(=O)O)C(=O)O)[C@@H](C)CC [FKTWKRPPFQTSCWGIIKE],MIC,Bacillus subtilis,≥ 46.8 µM
same,MIC,[15],23.4 µM
same,MIC,[16],11.7 µM
same,MIC,Escherichia coli ML-35p,≥ 46.8 µM
same,MIC,[17],23.4 µM
same,MIC,[18],5.84 µM
same,MIC,[9],23.4 µM
CC[C@H](C)[C@H](NC(=O)CNC(=O)CNC(=O)[C@H](C)NC(=O)[C@@H](NC(=O)[C@H](CCCCN)NC(=O)[C@@H]1CCCN1C(=O)[C@@H](NC(=O)[C@H](CCSC)NC(=O)[C@H](CO)NC(=O)[C@H](Cc1ccccc1)NC(=O)[C@@H](N)Cc1ccccc1)[C@@H](C)CC)[C@@H](C)CC)C(=O)N[C@@H](C)C(=O)N[C@@H](CO)C(=O)N[C@@H](CC(C)C)C(=O)N[C@H](C(=O)N[C@@H](CCCCN)C(=O)N[C@@H](CC(N)=O)C(=O)N[C@@H](CC(C)C)C(N)=O)C(C)C [FFSMIPKIAGGIASLVKNL],MIC,[19],≥ 63.8 µM
same,MIC,[20],3.99 µM
same,MIC,[21],3.99 µM
CC[C@H](C)[C@H](NC(=O)[C@@H](NC(=O)[C@H](C)NC(=O)[C@H](Cc1ccccc1)NC(=O)[C@H](CC(C)C)NC(=O)CN)C(C)C)C(=O)N[C@@H](CCCCN)C(=O)N[C@@H](CCCCN)C(=O)N[C@H](C(=O)N[C@@H](C)C(=O)N[C@@H](CO)C(=O)N[C@H](C(=O)N[C@H](C(=O)N[C@@H](CCCCN)C(=O)N[C@@H](CCCCN)C(=O)N[C@@H](CC(C)C)C(N)=O)[C@@H](C)CC)C(C)C)C(C)C [GLFAVIKKVASVIKKL],MIC,Escherichia coli,58.3 µM
same,MIC,Streptococcus uberis,14.6 µM
same,MIC,[22],7 µM
same,MIC,Leuconostoc lactis,1.75 µM
same,MIC,Pasteurella multocida,≥ 58.3 µM
same,MIC,Micrococcus luteus,14.6 µM
same,MIC,Listeria innocua,3.5 µM
same,MIC,Staphylococcus aureus,14.6 µM
same,MIC,Bacillus cereus,14.6 µM
CC[C@H](C)[C@H](NC(=O)CN)C(=O)N[C@@H](CC(C)C)C(=O)N[C@@H](CC(=O)O)C(=O)N[C@H](C(=O)N[C@@H](CC(C)C)C(=O)N[C@@H](CCCCN)C(=O)N[C@@H](CCC(N)=O)C(=O)N[C@@H](Cc1ccccc1)C(=O)N[C@@H](C)C(=O)N[C@@H](CCCCN)C(=O)NCC(=O)N[C@H](C(=O)NCC(=O)N[C@@H](CCCCN)C(=O)N[C@@H](CC(=O)O)C(=O)N[C@@H](CC(C)C)C(=O)N[C@H](C(=O)N[C@@H](CCCCN)C(=O)NCC(=O)N[C@@H](C)C(=O)N[C@@H](C)C(=O)N[C@@H](CCC(N)=O)C(=O)NCC(=O)N[C@H](C(=O)N[C@@H](CC(C)C)C(=O)N[C@@H](CO)C(=O)O)C(C)C)C(C)C)C(C)C)[C@@H](C)O [GILDTLKQFAKGVGKDLVKGAAQGVLS],MIC,Candida albicans,> 36.8 µM
same,MIC,Escherichia coli,9.21 µM
same,MIC,Saccharomyces cerevisiae,9.21 µM
same,MIC,Bacillus subtilis,18.4 µM
same,MIC,Serratia marcescens,≥ 36.8 µM
same,MIC,[22],18.4 µM
same,MIC,Salmonella typhimurium,27.6 µM
same,MIC,Micrococcus luteus,0.921 µM
same,MIC,Pseudomonas aeruginosa,9.21 µM
same,MIC,Proteus mirabilis,18.4 µM
same,MIC,Shigella dysenteriae,9.21 µM
CC[C@H](C)[C@H](NC(=O)[C@@H](NC(=O)[C@@H]1CCCN1C(=O)[C@@H](NC(=O)[C@@H](NC(=O)[C@H](Cc1cnc[nH]1)NC(=O)[C@@H]1CCCN1C(=O)[C@@H](NC(=O)[C@@H](NC(=O)[C@H](Cc1cnc[nH]1)NC(=O)[C@H](CCCCN)NC(=O)[C@@H](NC(=O)[C@@H](NC(=O)[C@H](CO)NC(=O)CNC(=O)[C@H](CC(C)C)NC(=O)[C@@H](NC(=O)[C@H](CO)NC(=O)[C@H](CC(C)C)NC(=O)[C@H](CC(C)C)NC(=O)CN)C(C)C)C(C)C)C(C)C)C(C)C)[C@@H](C)CC)C(C)C)C(C)C)C(C)C)C(=O)N[C@@H](C)C(=O)N[C@@H](CCC(=O)O)C(=O)N[C@@H](Cc1cnc[nH]1)C(=O)N[C@@H](CC(C)C)C(N)=O [GLLSVLGSVVKHVIPHVVPVIAEHL],MIC,Escherichia coli,> 38.3 µM
same,MIC,Streptococcus uberis,19.1 µM
same,MIC,[22],9.57 µM
same,MIC,Leuconostoc lactis,1.15 µM
same,MIC,Pasteurella multocida,9.57 µM
same,MIC,Micrococcus luteus,4.59 µM
same,MIC,Listeria innocua,19.1 µM
same,MIC,Staphylococcus aureus,9.57 µM
same,MIC,Bacillus cereus,19.1 µM
